Assay results: patent US11246309B2, “Preserving agent for organs or tissue and preservation method for organs or tissue” (ISHIHARA SANGYO KAISHA, LTD., priority 2015, dated 2022)

Assays:
[1] = tested on: liver; assay: Organ preservation test: hepatic histopathological change after preservation at 4° C.; design: species or system SD rats; conditions: additives in UW solution, score 0 to 3.0 per sample
Description: The formulations of preserving solutions containing UW solution, and a combination of quercetin and sugar were evaluated using a hepatic histopathological change as an index.
Williams solution only, Williams solution containing only quercetin (10 μg/mL), Williams solution containing only fructose (0.2M), Williams solution containing only sucrose (0.1M), Williams solution containing quercetin (10 μg/mL) and fructose (0.2M), or Williams solution containing quercetin (10 μg/mL) and sucrose (0.1M) was used as an organ perfusion solution. Subsequently, as an organ preserving solution, UW solution only, UW solution containing only quercetin (10 μg/mL), UW solution containing only fructose (0.2M), UW solution containing only sucrose (0.1M), UW solution containing quercetin (10 μg/mL) and fructose (0.2M) or UW solution containing quercetin (10 μg/mL) and sucrose (0.1M) was used.
SD rats (male, body weight=264.1 g to 317.2 g) were injected with heparin from the portal vein under anesthesia. Thereafter, they were perfused with a physiological saline solution (8 cmH2O, about 100 mL) at room temperature, and then perfused with each organ perfusion solution (8 cmH2O, about 100 mL) at room temperature. Thereafter, the liver was excised, immersed in 20 mL of each organ preserving solution, and preserved at 4° C. 1 day after and 2 days after the preservation was started, all liver samples were immobilized using a 10% phosphate buffer formalin aqueous solution, and embedded in paraffin according to the standard method. Each sample was sliced into about 6 μm and a hematoxylin-eosin staining sample was prepared, followed by microscopic examination. The degrees of the observed histopathological change were converted to scores as shown below, and summed as cumulative values.
Score 0: no change was observed, Score 0.5: slight change was observed, Score 1.0: small change was observed, Score 2.0: intermediate change was observed, Score 3.0: great change was observed.

[2] = tested on: liver; assay: Organ preservation test: rat liver preserved at 4° C., ALT in organ immersion solution; design: species or system SD rats; conditions: additives in UW solution, liver at 4° C., mean of n=3 ± SD
Description: The protective action of a preserving solution for organs or tissue used in organ transplantation or tissue transplantation was assumed, and formulations of preservative solutions containing UW solution, and a combination of quercetin and sugar were evaluated using liver damage degree as an index. Williams solution (GIBCO, No. 12551-032) only, Williams solution containing quercetin (Sigma-Aldrich, 337951-25G) (10 μg/mL), Williams solution containing quercetin (10 μg/mL) and fructose (0.05M to 0.4M) (Kanto Chemical Co., Inc., Code No. 16065-00) (0.05M to 0.4M), or Williams solution containing quercetin (10 μg/mL) and sucrose (0.025M to 0.2M) (Nacalai Tesque, Inc., Code No. 30404-45) (0.025M to 0.2M) was used as an organ perfusion solution. Subsequently, UW solution (VSP1000, […] (cold storage solution) 1000 mL: Astellas Pharma Inc.) only, UW solution containing quercetin (10 μg/mL), UW solution containing quercetin (10 μg/mL) and fructose (0.05M to 0.4M), or UW solution containing quercetin (10 μg/mL) and sucrose (0.025M to 0.2M) was used as an organ preserving solution. SD rats (male, body weight=255.4 g to 339.0 g) were injected with heparin from the portal vein under anesthesia. Thereafter, they were perfused with a physiological saline solution (8 cmH2O, about 100 mL) at room temperature, and then perfused with each organ perfusion solution (8 cmH2O, about 100 mL) at room temperature. Thereafter, the liver was excised, immersed in 20 mL of each organ preserving solution, and preserved at 4° C. A part of each organ preserving solution was collected at 1 day after, 3 days after, 5 days after, and 7 days after the preservation was started, and ALT (alanine aminotransferase) (IU/L) was measured as an index of the degree of liver damage due to low-temperature preservation. The measured ALT are shown in Tables 1 and 2 (average value of n=3±standard deviation).

[3] = 1 day after preservation at 4° C. was started
[4] = 2 days after preservation at 4° C. was started

## OC[C@H]1O[C@@](CO)(O[C@H]2O[C@H](CO)[C@@H](O)[C@H](O)[C@H]2O)[C@@H](O)[C@@H]1O [0.1M Sucrose, sucrose]
[1]; [3]
  Histopathological Change: Diffuse Vacuolar Degeneration (Cumulative Score of n = 3): 3.0
  Histopathological Change: Sporadic Single Cell Cloudy Swelling (Cumulative Score of n = 3): 2.0
  Histopathological Change: Sporadic Single Cell Necrosis (Cumulative Score of n = 3): 0.5
[1]; [4]
  Histopathological Change: Diffuse Vacuolar Degeneration (Cumulative Score of n = 3): 3.0
  Histopathological Change: Sporadic Single Cell Cloudy Swelling (Cumulative Score of n = 3): 2.5
  Histopathological Change: Sporadic Single Cell Necrosis (Cumulative Score of n = 3): 1.0

## O=C(CO)[C@@H](O)[C@H](O)[C@H](O)CO [0.2M Fructose, fructose]
[1]; [3]
  Histopathological Change: Diffuse Vacuolar Degeneration (Cumulative Score of n = 3): 2.0
  Histopathological Change: Sporadic Single Cell Cloudy Swelling (Cumulative Score of n = 3): 2.5
  Histopathological Change: Sporadic Single Cell Necrosis (Cumulative Score of n = 3): 1.0
[1]; [4]
  Histopathological Change: Diffuse Vacuolar Degeneration (Cumulative Score of n = 3): 1.5
  Histopathological Change: Sporadic Single Cell Cloudy Swelling (Cumulative Score of n = 3): 1.0
  Histopathological Change: Sporadic Single Cell Necrosis (Cumulative Score of n = 3): 0.5

## O=c1c(O)c(-c2ccc(O)c(O)c2)oc2cc(O)cc(O)c12 [Quercetin 10 μg/mL, quercetin]
[1]; [3]
  Histopathological Change: Diffuse Vacuolar Degeneration (Cumulative Score of n = 3): 3.0
  Histopathological Change: Sporadic Single Cell Cloudy Swelling (Cumulative Score of n = 3): 1.5
  Histopathological Change: Sporadic Single Cell Necrosis (Cumulative Score of n = 3): 0.0
[1]; [4]
  Histopathological Change: Diffuse Vacuolar Degeneration (Cumulative Score of n = 3): 3.0
  Histopathological Change: Sporadic Single Cell Cloudy Swelling (Cumulative Score of n = 3): 2.0
  Histopathological Change: Sporadic Single Cell Necrosis (Cumulative Score of n = 3): 0.5
[2]; Table 1, 1 day after
  ALT Value in Organ Immersion Solution: 65 ± 71 IU/L
[2]; Table 1, 3 days after
  ALT Value in Organ Immersion Solution: 90 ± 82 IU/L
[2]; Table 1, 5 days after
  ALT Value in Organ Immersion Solution: 98 ± 77 IU/L
[2]; Table 1, 7 days after
  ALT Value in Organ Immersion Solution: 117 ± 71 IU/L
[2]; Table 2, 1 day after
  ALT Value in Organ Immersion Solution: 62 ± 68 IU/L
[2]; Table 2, 3 days after
  ALT Value in Organ Immersion Solution: 108 ± 121 IU/L
[2]; Table 2, 5 days after
  ALT Value in Organ Immersion Solution: 126 ± 135 IU/L
[2]; Table 2, 7 days after
  ALT Value in Organ Immersion Solution: 148 ± 144 IU/L
